Reference: ChEMBL document CHEMBL5113426, “Design, synthesis and antitumor activity study of PARP-1/HDAC dual targeting inhibitors” (Bioorg Med Chem Lett, 2022)
The source made the active and inactive calls. The rule behind the calls is not given here.

What was measured:
MDA-MB-231 [1] = assay: Antiproliferative activity against human MDA-MB-231 cells assessed as reduction in cell viability measured after 7 days; type: functional, cell-based; conditions: MDA-MB-231, 168 h
Histone deacetylase = assay: Inhibition of HDAC derived from human HeLa cell nucleus; type: subcellular
ES-2 [2] = assay: Antiproliferative activity against human ES2 cells assessed as reduction in cell viability measured after 7 days; type: functional, cell-based; conditions: ES-2, 168 h
[3] = target: Poly [ADP-ribose] polymerase 1 (Homo sapiens, UniProt P09874); assay: Inhibition of PARP-1 derived from human HeLa cell nucleus; type: subcellular
CAPAN-1 = assay: Antiproliferative activity against human CAPAN-1 cells assessed as reduction in cell viability; type: functional, cell-based
DU-145 = assay: Antiproliferative activity against human DU-145 cells assessed as reduction in cell viability; type: functional, cell-based
A549 = assay: Antiproliferative activity against human A549 cells assessed as reduction in cell viability; type: functional, cell-based
HCC1937 = assay: Antiproliferative activity against human HCC1937 cells assessed as reduction in cell viability; type: functional, cell-based
Histone deacetylase 8 = target: T1, Histone deacetylase 8 (Homo sapiens, UniProt Q9BY41); assay: Inhibition of HDAC8 (unknown origin)
T1 sequence (Q9BY41 whole entry): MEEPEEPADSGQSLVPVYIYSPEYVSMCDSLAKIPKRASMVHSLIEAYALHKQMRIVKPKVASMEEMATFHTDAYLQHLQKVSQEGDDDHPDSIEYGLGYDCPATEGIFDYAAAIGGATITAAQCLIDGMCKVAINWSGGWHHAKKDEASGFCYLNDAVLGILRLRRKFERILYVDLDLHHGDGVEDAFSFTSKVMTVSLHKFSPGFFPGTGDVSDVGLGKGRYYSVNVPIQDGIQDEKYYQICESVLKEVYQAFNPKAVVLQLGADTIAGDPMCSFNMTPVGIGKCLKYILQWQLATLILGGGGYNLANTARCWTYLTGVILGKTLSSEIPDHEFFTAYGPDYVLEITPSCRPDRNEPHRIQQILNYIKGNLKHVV

[4] = target: Vascular endothelial growth factor receptor 2 (Homo sapiens, UniProt P35968); assay: Inhibition of VEGFR2 (unknown origin)
[5] = target: T2, Protein deacetylase HDAC6 (Homo sapiens, UniProt Q9UBN7); assay: Inhibition of HDAC6 (unknown origin)
T2 sequence (Q9UBN7 whole entry): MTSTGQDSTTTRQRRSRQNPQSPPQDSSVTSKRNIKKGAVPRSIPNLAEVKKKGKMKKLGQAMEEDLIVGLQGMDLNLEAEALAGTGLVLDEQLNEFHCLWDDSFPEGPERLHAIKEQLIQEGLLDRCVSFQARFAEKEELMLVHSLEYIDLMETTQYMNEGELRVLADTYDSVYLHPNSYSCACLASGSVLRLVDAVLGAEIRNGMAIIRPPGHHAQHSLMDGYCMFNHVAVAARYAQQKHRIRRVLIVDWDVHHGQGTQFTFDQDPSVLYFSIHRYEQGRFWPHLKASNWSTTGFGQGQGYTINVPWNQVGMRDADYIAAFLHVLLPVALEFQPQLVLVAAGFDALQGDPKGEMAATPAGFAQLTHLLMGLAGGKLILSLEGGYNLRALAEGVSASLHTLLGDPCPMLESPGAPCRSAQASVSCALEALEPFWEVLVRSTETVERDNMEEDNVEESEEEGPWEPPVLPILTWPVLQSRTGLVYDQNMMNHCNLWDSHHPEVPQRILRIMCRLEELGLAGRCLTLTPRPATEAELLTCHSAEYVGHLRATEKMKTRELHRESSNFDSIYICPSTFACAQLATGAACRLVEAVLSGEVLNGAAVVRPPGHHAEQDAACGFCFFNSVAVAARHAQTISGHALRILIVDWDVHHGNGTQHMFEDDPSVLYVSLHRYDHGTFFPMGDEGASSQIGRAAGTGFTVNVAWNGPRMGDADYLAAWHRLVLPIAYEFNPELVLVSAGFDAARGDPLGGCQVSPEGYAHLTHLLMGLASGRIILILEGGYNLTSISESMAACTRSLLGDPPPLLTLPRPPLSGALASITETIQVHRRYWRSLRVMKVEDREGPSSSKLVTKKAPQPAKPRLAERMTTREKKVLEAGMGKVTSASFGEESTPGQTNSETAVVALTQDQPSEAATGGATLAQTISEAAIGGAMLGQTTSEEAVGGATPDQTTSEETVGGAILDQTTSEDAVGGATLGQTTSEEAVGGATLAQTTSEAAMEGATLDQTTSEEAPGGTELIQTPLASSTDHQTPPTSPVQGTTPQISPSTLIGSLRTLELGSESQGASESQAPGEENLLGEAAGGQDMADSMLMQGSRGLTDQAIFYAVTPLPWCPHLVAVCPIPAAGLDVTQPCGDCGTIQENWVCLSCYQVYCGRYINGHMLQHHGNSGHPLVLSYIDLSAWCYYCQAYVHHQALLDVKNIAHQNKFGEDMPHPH

Histone deacetylase 4 = Histone deacetylase 4 (Homo sapiens, UniProt P56524); assay: Inhibition of HDAC4 (unknown origin)
[6] = Cytotoxicity against human EA.hy 926 assessed as inhibition of cell growth; type: toxicity, cell-based; conditions: EA.hy 926 cells
Histone deacetylase 2 = Histone deacetylase 2 (Homo sapiens, UniProt Q92769); assay: Inhibition of HDAC2 (unknown origin)
Histone deacetylase 3 = Histone deacetylase 3 (Homo sapiens, UniProt O15379); assay: Inhibition of HDAC3 (unknown origin)
ES-2 [7] = assay: Upregulation of Ac-HH4 expression in human ES2 cells at 10 uM by Western blot analysis; type: functional, cell-based
ES-2 [8] = assay: Upregulation of Ac-HH3 expression in human ES2 cells at 10 uM by Western blot analysis; type: functional, cell-based
HUVEC = assay: Antiangiogenesis activity in HUVEC cells assessed as damage in vascular tube structure at 5 to 10 uM by tube formation assay; type: functional, cell-based; conditions: Homo sapiens, dose 5-10 µM
MDA-MB-436 = assay: Induction of intracellular ROS generation in human MDA-MB-436 cells assessed as increase in ROS level by DCFH-DA staining based microscopic analysis; type: functional, cell-based; conditions: dose 1.25-5 µM, DDE = dose-dependent effect
ES-2 [9] = assay: Upregulation of Ac-tubulin expression in human ES2 cells at 0.3 uM by Western blot analysis; type: functional, cell-based
MDA-MB-231 [10] = assay: Inhibition of cell migration in human MDA-MB-231 cells at 3 to 10 uM measured upto 48 hrs by wound healing assay; type: functional, cell-based; conditions: dose 3-10 µM

Chain of Poly [ADP-ribose] polymerase 1 (P09874 whole entry): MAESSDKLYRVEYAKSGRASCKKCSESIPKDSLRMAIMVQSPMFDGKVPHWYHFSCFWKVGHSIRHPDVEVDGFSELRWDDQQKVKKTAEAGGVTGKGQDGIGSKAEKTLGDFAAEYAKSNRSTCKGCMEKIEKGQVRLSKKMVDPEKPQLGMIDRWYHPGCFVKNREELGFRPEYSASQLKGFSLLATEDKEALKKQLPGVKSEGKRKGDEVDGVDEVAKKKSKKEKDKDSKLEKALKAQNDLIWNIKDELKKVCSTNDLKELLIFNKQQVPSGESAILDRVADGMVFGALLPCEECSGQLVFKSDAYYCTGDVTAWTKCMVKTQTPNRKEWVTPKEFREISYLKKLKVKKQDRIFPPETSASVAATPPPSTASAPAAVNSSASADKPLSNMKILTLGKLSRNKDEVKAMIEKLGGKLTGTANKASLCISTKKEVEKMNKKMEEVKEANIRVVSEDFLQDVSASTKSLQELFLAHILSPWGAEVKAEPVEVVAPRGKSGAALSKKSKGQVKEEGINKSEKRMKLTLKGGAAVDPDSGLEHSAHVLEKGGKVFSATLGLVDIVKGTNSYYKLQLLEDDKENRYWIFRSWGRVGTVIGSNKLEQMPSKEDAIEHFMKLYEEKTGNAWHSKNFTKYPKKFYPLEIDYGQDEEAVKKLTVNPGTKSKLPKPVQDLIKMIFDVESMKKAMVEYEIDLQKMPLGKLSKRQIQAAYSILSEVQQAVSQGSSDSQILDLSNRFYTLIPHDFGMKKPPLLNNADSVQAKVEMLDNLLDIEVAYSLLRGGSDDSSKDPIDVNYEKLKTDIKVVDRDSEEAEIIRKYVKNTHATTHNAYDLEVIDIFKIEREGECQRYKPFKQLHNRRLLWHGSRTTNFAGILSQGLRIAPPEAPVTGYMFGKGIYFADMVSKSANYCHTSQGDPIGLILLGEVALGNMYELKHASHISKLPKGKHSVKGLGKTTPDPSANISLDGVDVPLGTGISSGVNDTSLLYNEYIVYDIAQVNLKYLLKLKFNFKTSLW
Chain of Vascular endothelial growth factor receptor 2 (P35968 whole entry): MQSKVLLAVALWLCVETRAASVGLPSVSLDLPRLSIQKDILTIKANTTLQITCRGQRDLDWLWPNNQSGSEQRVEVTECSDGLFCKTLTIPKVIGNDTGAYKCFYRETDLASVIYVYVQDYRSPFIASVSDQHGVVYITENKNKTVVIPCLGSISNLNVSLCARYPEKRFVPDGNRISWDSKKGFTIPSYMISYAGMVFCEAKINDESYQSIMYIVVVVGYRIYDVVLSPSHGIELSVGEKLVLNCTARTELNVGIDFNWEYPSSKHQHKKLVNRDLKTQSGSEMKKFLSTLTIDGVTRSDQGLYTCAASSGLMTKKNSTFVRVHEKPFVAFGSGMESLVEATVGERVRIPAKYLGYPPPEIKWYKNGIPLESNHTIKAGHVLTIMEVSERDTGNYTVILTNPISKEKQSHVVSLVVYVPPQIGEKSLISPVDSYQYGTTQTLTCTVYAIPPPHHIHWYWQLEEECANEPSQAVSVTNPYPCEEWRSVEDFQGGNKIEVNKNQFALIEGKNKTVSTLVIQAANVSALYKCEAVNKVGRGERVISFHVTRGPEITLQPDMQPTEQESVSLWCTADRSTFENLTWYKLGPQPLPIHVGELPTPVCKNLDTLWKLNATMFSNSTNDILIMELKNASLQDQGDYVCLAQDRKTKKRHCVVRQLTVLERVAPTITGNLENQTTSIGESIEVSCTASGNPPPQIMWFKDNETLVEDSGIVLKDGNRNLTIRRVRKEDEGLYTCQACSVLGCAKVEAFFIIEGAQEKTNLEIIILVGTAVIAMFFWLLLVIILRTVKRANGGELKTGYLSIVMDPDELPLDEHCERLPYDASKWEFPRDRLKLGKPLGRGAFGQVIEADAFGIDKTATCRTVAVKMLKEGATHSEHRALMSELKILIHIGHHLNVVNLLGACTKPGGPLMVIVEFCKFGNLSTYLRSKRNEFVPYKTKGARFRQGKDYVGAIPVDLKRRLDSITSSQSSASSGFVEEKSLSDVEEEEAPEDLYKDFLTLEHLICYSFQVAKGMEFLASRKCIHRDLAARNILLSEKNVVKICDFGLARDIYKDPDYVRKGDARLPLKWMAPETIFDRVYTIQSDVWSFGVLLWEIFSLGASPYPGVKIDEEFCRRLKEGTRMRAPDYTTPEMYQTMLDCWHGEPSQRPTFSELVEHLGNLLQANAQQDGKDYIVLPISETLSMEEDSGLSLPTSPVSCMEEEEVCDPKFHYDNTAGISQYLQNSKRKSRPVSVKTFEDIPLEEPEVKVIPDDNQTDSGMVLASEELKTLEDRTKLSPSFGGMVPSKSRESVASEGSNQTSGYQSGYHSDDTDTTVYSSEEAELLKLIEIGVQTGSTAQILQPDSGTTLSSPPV
Chain of Histone deacetylase 2 (Q92769 whole entry): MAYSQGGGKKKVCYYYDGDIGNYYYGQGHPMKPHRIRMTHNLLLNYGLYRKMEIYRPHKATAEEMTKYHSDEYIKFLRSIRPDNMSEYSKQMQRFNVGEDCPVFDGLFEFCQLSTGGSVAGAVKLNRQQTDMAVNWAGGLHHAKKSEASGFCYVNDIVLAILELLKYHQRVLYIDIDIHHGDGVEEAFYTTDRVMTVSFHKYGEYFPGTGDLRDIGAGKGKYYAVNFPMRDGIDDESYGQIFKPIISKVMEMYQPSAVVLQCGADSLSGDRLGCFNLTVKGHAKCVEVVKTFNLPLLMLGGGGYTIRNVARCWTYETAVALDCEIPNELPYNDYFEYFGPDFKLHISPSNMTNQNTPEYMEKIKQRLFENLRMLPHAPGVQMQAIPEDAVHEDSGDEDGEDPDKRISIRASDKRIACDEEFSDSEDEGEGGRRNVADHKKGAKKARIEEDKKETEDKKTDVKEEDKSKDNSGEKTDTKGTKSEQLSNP
Chain of Histone deacetylase 3 (O15379 whole entry): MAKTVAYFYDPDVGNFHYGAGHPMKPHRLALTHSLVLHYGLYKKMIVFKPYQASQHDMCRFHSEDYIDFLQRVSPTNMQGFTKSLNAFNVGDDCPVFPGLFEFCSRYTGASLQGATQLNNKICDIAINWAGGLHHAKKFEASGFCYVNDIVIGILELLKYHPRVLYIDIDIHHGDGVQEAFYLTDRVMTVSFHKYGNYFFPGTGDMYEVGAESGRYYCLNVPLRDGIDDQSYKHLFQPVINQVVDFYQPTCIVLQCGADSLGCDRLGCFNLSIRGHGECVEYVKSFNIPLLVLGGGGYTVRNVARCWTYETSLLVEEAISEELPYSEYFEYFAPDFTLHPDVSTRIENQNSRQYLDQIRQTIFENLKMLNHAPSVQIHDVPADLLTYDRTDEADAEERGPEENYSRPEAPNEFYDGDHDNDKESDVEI
Chain of Histone deacetylase 4 (P56524 whole entry): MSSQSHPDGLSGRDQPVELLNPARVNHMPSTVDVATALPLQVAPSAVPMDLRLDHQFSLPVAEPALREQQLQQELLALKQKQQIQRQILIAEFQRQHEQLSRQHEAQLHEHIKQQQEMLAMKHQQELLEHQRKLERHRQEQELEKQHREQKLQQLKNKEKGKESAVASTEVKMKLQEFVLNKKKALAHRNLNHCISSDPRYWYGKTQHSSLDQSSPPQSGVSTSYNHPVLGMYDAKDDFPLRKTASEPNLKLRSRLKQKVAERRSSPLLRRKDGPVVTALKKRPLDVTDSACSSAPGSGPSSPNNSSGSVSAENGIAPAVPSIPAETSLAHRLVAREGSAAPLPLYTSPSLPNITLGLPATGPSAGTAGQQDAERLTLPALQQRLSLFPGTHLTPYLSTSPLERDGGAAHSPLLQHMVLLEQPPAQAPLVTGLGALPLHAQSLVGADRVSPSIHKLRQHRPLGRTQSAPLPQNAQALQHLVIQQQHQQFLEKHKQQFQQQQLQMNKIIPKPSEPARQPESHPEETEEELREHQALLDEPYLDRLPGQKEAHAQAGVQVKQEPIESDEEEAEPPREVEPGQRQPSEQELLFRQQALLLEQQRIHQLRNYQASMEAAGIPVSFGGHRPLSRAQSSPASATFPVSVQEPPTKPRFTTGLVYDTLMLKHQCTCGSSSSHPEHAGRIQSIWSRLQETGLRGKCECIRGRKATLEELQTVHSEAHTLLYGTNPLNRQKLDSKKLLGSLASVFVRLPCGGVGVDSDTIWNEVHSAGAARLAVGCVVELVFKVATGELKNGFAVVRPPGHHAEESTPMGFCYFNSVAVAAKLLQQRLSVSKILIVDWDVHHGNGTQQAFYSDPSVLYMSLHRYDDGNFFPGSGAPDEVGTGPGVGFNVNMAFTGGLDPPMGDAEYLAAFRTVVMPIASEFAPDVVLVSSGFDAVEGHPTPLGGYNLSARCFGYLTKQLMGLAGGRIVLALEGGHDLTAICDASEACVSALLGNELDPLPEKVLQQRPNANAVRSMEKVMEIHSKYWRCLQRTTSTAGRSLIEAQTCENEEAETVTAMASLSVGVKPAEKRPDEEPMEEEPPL

Row | SMILES | IC50 (MDA-MB-231 [1]) [µM] | IC50 (Histone deacetylase) [µM] | IC50 [3] [µM] | IC50 (DU-145) [µM] | IC50 (A549) [µM] | IC50 (HCC1937) [µM] | IC50 (ES-2 [2]) [µM] | IC50 (CAPAN-1) [µM] | further results
1 | NC(=O)c1cccc2cn(-c3ccc(OCCCCCCCC(=O)NO)cc3)nc12 | > 30 | 13.7 | 0.245 | – | – | – | 6.15 | – | –
2 | NC(=O)c1cccc2[nH]c(-c3ccc(OCCCCCC(=O)NO)cc3)nc12 | > 30 | 5.5 | 0.0202 | – | – | – | > 30 | – | –
3 | NC(=O)c1cccc2[nH]c(-c3ccc(OCCCC(=O)NO)cc3)nc12 | > 30 | > 30 | 0.0142 | – | – | – | > 30 | – | –
4 | NC(=O)c1cccc2cn(-c3ccc(OCCCCCCC(=O)NO)cc3)nc12 | > 30 | > 30 | 0.128 | – | – | – | 1.57 | – | –
5 | NC(=O)c1cccc2[nH]c(-c3ccc(OCCCCCCC(=O)NO)cc3)nc12 | > 30 | 7 | 0.038 | – | – | – | > 30 | – | –
6 | NC(=O)c1cccc2cn(-c3ccc(OCCCC(=O)NO)cc3)nc12 | 9.93 | > 30 | 0.102 | – | – | – | 12.7 | – | –
7 | NC(=O)c1cccc2[nH]c(-c3ccc(OCCCCC(=O)NO)cc3)nc12 | > 30 | > 30 | 0.0121 | – | – | – | > 30 | – | –
8 | NC(=O)c1cccc2cn(-c3ccc(OCCCCCC(=O)NO)cc3)nc12 | 4.28 | > 30 | 0.285 | – | – | – | 1.68 | – | –
9 | NC(=O)c1cccc2[nH]c(-c3ccc(OCCCCCCCC(=O)NO)cc3)nc12 | > 30 | > 30 | 0.0475 | – | – | – | > 30 | – | –

The next compounds have a lower IC50 (MDA-MB-231 [1]) than those just listed; values first:

Row | IC50 (MDA-MB-231 [1]) [µM] | IC50 (Histone deacetylase) [µM] | IC50 [3] [µM] | IC50 (DU-145) [µM] | IC50 (A549) [µM] | IC50 (HCC1937) [µM] | SMILES | IC50 (ES-2 [2]) [µM] | IC50 (CAPAN-1) [µM] | further results
10 | 2.41 | > 30 | 0.102 | – | – | – | NC(=O)c1cccc2cn(-c3ccc(OCCCCC(=O)NO)cc3)nc12 | 3.64 | – | –
11 | 1.08 | 7.7 | 0.031 | 8.56 | 16.4 | 4.05 | NC(=O)c1ccc(COc2ccc(-c3nc4c(C(N)=O)cccc4[nH]3)cc2)cc1 | 1.16 | 26.4 | –
12 | 0.69 | 7.9 | 0.0274 | 4.7 | 7.72 | 2.88 | NC(=O)/C=C/c1ccc(COc2ccc(-c3nc4c(C(N)=O)cccc4[nH]3)cc2)cc1 | 1.37 | 5.63 | –
13 | 0.69 | – | – | 11.4 | 5.89 | > 30 | O=C(c1cc(Cc2n[nH]c(=O)c3ccccc23)ccc1F)N1CCN(C(=O)C2CC2)CC1 [OLAPARIB] | 2.05 | 1.67 | –
14 | 0.35 | 10.8 | 0.0689 | 3.38 | 5.67 | 2.85 | NC(=O)c1ccc(COc2ccc(-n3cc4cccc(C(N)=O)c4n3)cc2)cc1 | 1.16 | 4.53 | Activity (ES-2 [7]): Active; IC50 (Histone deacetylase 8): > 100 µM; IC50 [4]: 0.00592 µM; IC50 [5]: 0.54 µM; Activity (ES-2 [8]): Active; IC50 (Histone deacetylase 4): > 100 µM; Activity (HUVEC): Active; Activity (MDA-MB-436): Dde; Activity (ES-2 [9]): Active; inhibition (MDA-MB-231 [10]): Active; IC50 [6]: 5.41 µM; IC50 (Histone deacetylase 2): 42.1 µM; IC50 (Histone deacetylase 3): 7.22 µM
15 | 0.34 | 10.6 | 0.227 | 3.59 | 6.98 | 1.92 | NC(=O)/C=C/c1ccc(COc2ccc(-n3cc4cccc(C(N)=O)c4n3)cc2)cc1 | 0.42 | 6.55 | IC50 (Histone deacetylase 8): > 100 µM; IC50 [4]: 0.0034 µM; IC50 [5]: 0.51 µM; IC50 (Histone deacetylase 4): > 100 µM; IC50 [6]: 26 µM; IC50 (Histone deacetylase 2): 31 µM; IC50 (Histone deacetylase 3): 2.19 µM
